Laboratory results reported in patent US11485728B2, “Small molecules for the treatment of autoimmune diseases and cancer” (Athos Therapeutics, Inc., priority 2020, dated 2022).

Legend:
[1] = target: T1, CYP2C8 (Homo sapiens, UniProt P10632); assay: CYP-direct inhibition, CYP2C8; type: in vitro ADME
T1 construct: from tissue; host or cells: pooled human liver microsomes
T1 sequence (P10632 1-490): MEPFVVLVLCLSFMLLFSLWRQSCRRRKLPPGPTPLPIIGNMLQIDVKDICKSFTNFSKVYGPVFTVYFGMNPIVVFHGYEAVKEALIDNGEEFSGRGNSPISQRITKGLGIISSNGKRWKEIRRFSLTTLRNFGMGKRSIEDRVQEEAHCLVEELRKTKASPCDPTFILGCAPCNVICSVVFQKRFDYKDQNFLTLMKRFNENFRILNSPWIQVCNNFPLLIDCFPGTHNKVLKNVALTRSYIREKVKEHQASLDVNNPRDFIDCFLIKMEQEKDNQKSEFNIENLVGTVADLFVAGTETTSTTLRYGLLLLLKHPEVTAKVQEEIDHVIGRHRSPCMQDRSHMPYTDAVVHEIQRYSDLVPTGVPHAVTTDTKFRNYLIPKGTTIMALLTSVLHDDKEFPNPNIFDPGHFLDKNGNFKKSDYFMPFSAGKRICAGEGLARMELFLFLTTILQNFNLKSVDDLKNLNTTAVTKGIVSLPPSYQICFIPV
Description: Many drugs inhibit cytochrome P450 enzymes to cause clinically significant changes in the pharmacokinetics of other drugs. In vitro cytochrome P450 inhibition, can provide crucial information in evaluating potential clinical drug-drug interactions and is useful for focusing in vivo tests to areas of concern. The cytochrome P450 inhibition assay was developed by preparing a working cocktail solution consisting of six probe substrates 10 μM ethoxy-resorufin (CYP1A2), 100 μM rosiglitazone (CYP2C8), 50 μM diclofenac (CYP2C9), 300 μM S-mephenytoin (CYP2C19), 50 μM dextromethorphan (CYP2D6), and 20 μM midazolam (CYP3A4). A mixture solution consists of 140 uL of 0.286 mg/mL of pooled human liver microsome working solution and 20 uL working solutions of test articles, standard control inhibitors, or positive control placebo and 20 uL of substrate cocktail mixture working solution was prepared. The mixture solution was pre-warm in a gentle shaking bath at 37±2° C. for 5 minutes. The enzymatic reaction started by adding 20 uL of NRS working solution to the mixture solution and incubated for 10 minutes at 37±2° C. To stop the reaction, an addition of 400 μL cold stop solution (acetonitrile containing 50 ng/mL Tolbutamide as an internal standard (I.Std.) was added to the mixture solution. The final concentration of test article, inhibitors, substrates, and cofactors are noted in Table 0.1 below. Two individual samples were prepared for each test compound. The extracted samples were vortexed and then centrifuged at 4500 rpm for 7 minutes using Eppendorf Centrifuge 5910R. 200 uL of supernatant was diluting with 200 uL of 50% Methanol into 96-DW plate for LC/MS/MS analysis
Concentration-response plots are used to determine the effects of an inhibitor on an enzymatic reaction. A typical concentration-response plot provides fractional activity (Y axis) is plotted as a function of log inhibitor concentration (X axis). The data are fitted using a standard Sigmoidal dose-response equation which is also called a […] logistic equation. The concentration of compound that results in 50% inhibition of maximal activity is termed as the IC50 (inhibitor concentration yielding 50% inhibition). IC50 value is calculated using Prism GraphPad software, version 9. […].
Cytochrome P450 inhibition of a drug is a key factor in determining pharmacokinetic drug-drug interactions. The objective of this study was to evaluate the inhibition potential of G9a inhibitors on six (6) major human cytochrome P450 enzymes, including CYP1A2, CYP2C8, CYP2C9, CYP2C19, CYP2D6, and CYP3A4. Inhibition was determined by using a substrate cocktail and analyzing the rate of specific metabolites formation. The cytochrome P450 inhibition assay was developed using a cocktail consisting of six (6) probe substrates ethoxy-resorufin (CYP1A2), rosiglitazone (CYP2C8), diclofenac (CYP2C9), S-mephenytoin (CYP2C19), dextromethorphan (CYP2D6), and midazolam (CYP3A4). The cocktail was incubated in human liver microsome with NADPH regenerating system (NRS) in a shaking bath at 37±2° C. The formation of specific metabolites was monitored by LC/MS/MS. Test compound was added to the cocktail-liver microsome mixture at varying concentrations and its effect on cytochrome P450 activity was determined by analyzing the rate of specific metabolite formation. The percent inhibition was calculated and plotted with reference to the concentration, and the IC50 value for inhibition was derived by fitting the data with a using log(inhibitor) vs. normalized response with variable slope least squares fit by Graphpad Prism® software. […].

[2] = In-vitro half-life in human liver microsomes; type: in vitro ADME; details: Human liver microsomes 0.5 mg/mL; 1 μg/mL drug; NRS; read-out: Metabolic Half-life
Description: In each of the species (human, rat, mouse) of liver matrix to be tested, a working concentration of 2 μg/mL was prepared of each test article from the 0.5 mg/mL DMSO stock solution by adding 3 μL of 0.5 mg/mL test article stock solution to 747 μL of the 1 mg/mL liver matrix. Incubation was performed at 37±2° C. with gentle, continuous mixing in shaking water bath in 2.0 mL-well capacity 96-Deepwell plates (96-DWP). Samples were retrieved in duplicate at the following time points: 0, 5, 10, 15, 30 and 60 minutes. The final mixture contained 1 μg/mL of drug and 0.5 mg/mL of liver matrix. First, 50 μL of test articles in liver matrix was added to the 96-DWP and pre-warmed the mixture in the 96-DWP for 2 minutes in the 37° C. water bath. The enzymatic reaction was started by the addition of 50 μL of the corresponding 2× NADPH regenerating system (NRS) cofactor solution to all sample wells and stopped by the addition of 300 μL of stop solution (acetonitrile containing 10 ng/mL Tolbutamide as an internal standard (I.Std.). The samples were agitated for 10 minutes and then centrifuged for 20 minutes at 4500 rpm. 25 μL of supernatant was diluted with 475 μL acetonitrile containing I. Std. into a new 96-DWPs for LC-MS/MS analysis.
Half-life calculations were generated and calculated by Graphpad Prism® software. The half-life of test compound was calculated based on the first-order reaction kinetics. The data was transformed to linear regression (y=log(y) where “y” axis represents the % compound remaining at any given time with respect to time 0 minutes; “x” axis represents time in minutes) in order to calculate the half-life.
A comparison of metabolic stability in time-course incubation experiments in varying species of liver can provide information of pharmacokinetic properties of drugs attributable to species-related differences in hepatic metabolism. The results of these experiments often assist in further applications such as assessing in vitro metabolite profiling and choosing relevant species for toxicology studies based on similarities relative to the metabolic stability to the human profile. For these experiments, the test compound was tested in parallel with a positive control, Dasatinab, in an enzymatic reaction solution of each species (human and rat) of liver microsomes containing a NADPH regenerating system (NRS). The final mixture contained 1 μg/mL of drug and 0.5 mg/mL of liver matrix. Incubations were performed at 37±2° C. with gentle, continuous mixing in shaking water bath in 96-Deep well plates. The stability of the test compound is monitored using fast, specific and sensitive LC/MS/MS analysis.

Row | SMILES | IC50 [1] [µM] | half-life at 1 μg/mL [2] [h]
1 | COc1cc2c(NC3CCN(C(C)C)CC3)nc(-n3ccnc3)nc2cc1OCCCN1CCCC1 [Compound 156, 2-(1H-imidazol-1-yl)-N-(1-isopropylpiperidin-4-yl)-6-methoxy-7-(3-(pyrrolidin-1-yl)propoxy)quinazolin-4-amine] | > 100 | > 1
2 | COc1cc2c(NC3CCN(C(C)C)CC3)nc(-n3cccn3)nc2cc1OCCCN1CCCC1 [Compound 157, N-(1-isopropylpiperidin-4-yl)-6-methoxy-2-(1H-pyrazol-1-yl)-7-(3-(pyrrolidin-1-yl)propoxy)quinazolin-4-amine] | > 100 | > 1
3 | COc1cc2c(N[C@H]3CCCNC3)nc(N3CCCC3)nc2cc1OCCCN1CCCC1 [Compound 158, (S)-6-methoxy-N-(piperidin-3-yl)-2-(pyrrolidin-1-yl)-7-(3-(pyrrolidin-1-yl)propoxy)quinazolin-4-amine] | > 100 | > 1
4 | COc1cc2c(N[C@@H]3CCCNC3)nc(N3CCCC3)nc2cc1OCCCN1CCCC1 [Compound 159, (R)-6-methoxy-N-(piperidin-3-yl)-2-(pyrrolidin-1-yl)-7-(3-(pyrrolidin-1-yl)propoxy)quinazolin-4-amine] | > 100 | > 1
5 | COc1cc2c(NC3CCOCC3)nc(N3CCS(=O)(=O)CC3)nc2cc1OCCCN1CCCC1 [Compound 196, 4-(6-methoxy-7-(3-(pyrrolidin-1-yl)propoxy)-4-((tetrahydro-2H-pyran-4-yl)amino)quinazolin-2-yl)thiomorpholine 1,1-dioxide] | > 100 | > 1
6 | COc1cc2c(NC3CCN(C(C)C)CC3)nc(N3CCC3)nc2cc1OCCCN1CCCC1 [Compound 234, 2-(azetidin-1-yl)-N-(1-isopropylpiperidin-4-yl)-6-methoxy-7-(3-(pyrrolidin-1-yl)propoxy)quinazolin-4-amine] | > 100 | > 1
7 | COc1cc2c(NC3CCN(C(C)C)CC3)nc(C#N)nc2cc1OCCCN1CCCC1 [Compound 235, 4-((1-isopropylpiperidin-4-yl)amino)-6-methoxy-7-(3-(pyrrolidin-1-yl)propoxy)quinazoline-2-carbonitrile] | > 100 | > 1
8 | COc1cc2c(NC3CCOCC3)nc(N3CCN(C)CC3)nc2cc1OCCCN1CCCC1 [Compound 236, 6-methoxy-2-(4-methylpiperazin-1-yl)-7-(3-(pyrrolidin-1-yl)propoxy)-N-(tetrahydro-2H-pyran-4-yl)quinazolin-4-amine] | > 100 | > 1
9 | COc1cc2c(NC3CCS(=O)(=O)CC3)nc(N3CCC(F)(F)CC3)nc2cc1C#CCN1CCCC1 [Compound 248, 4-((2-(4,4-difluoropiperidin-1-yl)-6-methoxy-7-(3-(pyrrolidin-1-yl)prop-1-yn-1-yl)quinazolin-4-yl)amino)tetrahydro-2H-thiopyran 1,1-dioxide] | 43.1 | 0.63
10 | COc1cc2c(NC3CCN(C(C)C)CC3)nc(N3CCC(F)(F)CC3)nc2cc1OCCCN1CCCC1 [Compound 400, 2-(4,4-difluoropiperidin-1-yl)-N-(1-isopropylpiperidin-4-yl)-6-methoxy-7-(3-(pyrrolidin-1-yl)propoxy)quinazolin-4-amine, reference compound] | > 100 | > 1

Second part, the compound after the results:

Row | IC50 [1] [µM] | half-life at 1 μg/mL [2] [h] | SMILES
11 | 91.8 | > 1 | COc1cc2c(NC3CCOCC3)nc(N3CCCC3)nc2cc1OCCCN1CCCC1 [Compound 164, 6-methoxy-2-(pyrrolidin-1-yl)-7-(3-(pyrrolidin-1-yl)propoxy)-N-(tetrahydro-2H-pyran-4-yl)quinazolin-4-amine]
12 | > 100 | > 1 | COc1cc2c(NC3CCOCC3)nc(N3CCC3)nc2cc1OCCCN1CCCC1 [Compound 174, 2-(azetidin-1-yl)-6-methoxy-7-(3-(pyrrolidin-1-yl)propoxy)-N-(tetrahydro-2H-pyran-4-yl)quinazolin-4-amine]
13 | > 100 | > 1 | COc1cc2c(NC3CCOCC3)nc(N3CCOCC3)nc2cc1OCCCN1CCCC1 [Compound 195, 6-methoxy-2-morpholino-7-(3-(pyrrolidin-1-yl)propoxy)-N-(tetrahydro-2H-pyran-4-yl)quinazolin-4-amine]
14 | 95.5 | > 1 | COc1cc2c(NC3CCOCC3)nc(N3CCCN(C)CC3)nc2cc1OCCCN1CCCC1 [Compound 237, 6-methoxy-2-(4-methyl-1,4-diazepan-1-yl)-7-(3-(pyrrolidin-1-yl)propoxy)-N-(tetrahydro-2H-pyran-4-yl)quinazolin-4-amine]
